Assay results as given in patent US8138158B2, “Compositions and methods for therapy for diseases characterized by defective chloride transport” (Children's Hospital & Research Center at Oakland, priority 1997, dated 2012).

Legend:
[1] = biological target: T1, CFTR Cl channels (Homo sapiens, UniProt P13569); test: Outside-out single channel patch clamp on Calu-3 cells; assay type: cell-based
T1 construct: Calu-3 airway cells which express large amounts of native CFTR; endogenous in cells; host or cells: Calu-3 human airway epithelial cells
T1 sequence (P13569 whole entry): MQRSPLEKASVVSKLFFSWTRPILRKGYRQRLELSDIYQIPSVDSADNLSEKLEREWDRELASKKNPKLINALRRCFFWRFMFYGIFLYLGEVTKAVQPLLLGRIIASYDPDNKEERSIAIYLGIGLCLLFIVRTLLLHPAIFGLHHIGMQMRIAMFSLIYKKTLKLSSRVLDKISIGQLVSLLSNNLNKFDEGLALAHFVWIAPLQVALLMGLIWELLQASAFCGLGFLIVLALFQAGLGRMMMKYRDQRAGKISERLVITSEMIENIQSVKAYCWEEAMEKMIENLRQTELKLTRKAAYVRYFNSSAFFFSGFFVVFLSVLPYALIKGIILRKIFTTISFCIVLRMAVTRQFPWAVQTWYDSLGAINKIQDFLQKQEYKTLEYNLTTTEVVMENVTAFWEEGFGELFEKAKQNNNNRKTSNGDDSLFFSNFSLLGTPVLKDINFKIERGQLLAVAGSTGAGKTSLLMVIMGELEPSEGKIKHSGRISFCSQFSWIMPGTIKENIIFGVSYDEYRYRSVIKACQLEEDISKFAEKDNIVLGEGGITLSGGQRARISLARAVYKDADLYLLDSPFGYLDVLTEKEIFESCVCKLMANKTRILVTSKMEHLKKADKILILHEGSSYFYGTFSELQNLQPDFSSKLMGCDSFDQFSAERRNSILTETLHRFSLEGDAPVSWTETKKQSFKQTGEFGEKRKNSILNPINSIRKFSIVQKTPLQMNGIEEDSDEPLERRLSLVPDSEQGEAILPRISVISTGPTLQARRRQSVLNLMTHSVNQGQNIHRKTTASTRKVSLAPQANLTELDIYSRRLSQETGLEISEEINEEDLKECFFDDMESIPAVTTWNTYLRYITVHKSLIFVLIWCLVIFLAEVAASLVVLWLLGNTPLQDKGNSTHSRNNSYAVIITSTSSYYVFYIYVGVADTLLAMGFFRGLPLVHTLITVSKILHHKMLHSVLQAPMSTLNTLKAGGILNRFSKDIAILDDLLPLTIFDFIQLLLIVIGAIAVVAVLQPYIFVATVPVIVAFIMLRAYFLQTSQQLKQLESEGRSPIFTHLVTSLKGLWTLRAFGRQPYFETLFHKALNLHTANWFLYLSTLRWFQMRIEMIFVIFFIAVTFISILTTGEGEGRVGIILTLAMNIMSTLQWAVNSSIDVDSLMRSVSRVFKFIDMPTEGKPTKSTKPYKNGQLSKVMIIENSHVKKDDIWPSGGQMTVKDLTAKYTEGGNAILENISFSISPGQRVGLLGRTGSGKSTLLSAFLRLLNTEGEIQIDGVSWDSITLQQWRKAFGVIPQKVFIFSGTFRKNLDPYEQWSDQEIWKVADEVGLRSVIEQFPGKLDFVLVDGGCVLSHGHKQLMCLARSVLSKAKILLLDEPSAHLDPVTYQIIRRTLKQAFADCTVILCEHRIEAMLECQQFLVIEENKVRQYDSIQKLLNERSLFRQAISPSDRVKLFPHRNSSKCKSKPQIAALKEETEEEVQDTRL
Description: Patch clamp analysis. Single channel patch clamp studies were performed on Calu-3 cells at 37° C. The outside-out recording mode was established via the whole cell mode as described (Fischer, H. (2001) in Methods in Molecular Medicine, […]. & Walker, J. M. (Humana Press Inc, Totowa), pp. 49-66.). The bath solution contained (in mM) 145 NaCl, 1.7 CaCl2, 1 MgCl2, 10 Hepes, 10 glucose, pH=7.4. The pipette solution contained (in mM): 15 N-methyl-D-glucamine (NMG) Cl, 10 EGTA, 1 MgCl2, 10 Hepes, 10 glucose, 120 NMG-gluconate, 5 MgATP, 0.1 LiGTP, pH=7.4. […] The regulatory role of vitamin C on Cl ion channel activity was studied in Calu-3 airway cells which express large amounts of native CFTR as their major Cl conductance ([…]., Widdicombe, J. H. & Wine, J. J. (1994) Am. J. Physiol. 266, […]-[…]). […] Details of the single channel recording are illustrated in FIG. 20C. […] At negative potentials no channel openings were resolved indicating Cl-over-gluconate selectivity. Cyclic AMP is the major intracellular messenger for the activation of CFTR. We tested the possibility that L-ascorbic acid increased intracellular cAMP levels [cAMP], by either turning on cAMP production or preventing cAMP degradation. FIG. 20E compares whole cell cAMP levels of Calu-3 cells challenged with either increasing concentrations of L-ascorbic acid or the cAMP agonist forskolin.

[2] = tested on: Calu-3 airway epithelia; test: Short-circuit current (transepithelial Cl secretion) across Calu-3 airway epithelia, Examples 12-13; assay type: cell-based, human
Description: Short-circuit current measurement. Calu-3 or CF15 cells were grown as monolayers, mounted in Ussing chambers and short-circuit current (ISC) was recorded as described (Illek, B. & Fischer, H. (1998) Am. J. Physiol. 275, L902-L910). At 20-50 second intervals, transepithelial voltage was clamped from zero to 2 mV and the transepithelial resistance (Rte) was calculated. A serosa-to-mucosa-directed Cl gradient was applied. Serosal Ussing chamber solution contained (in mM): 120 NaCl, 20 NaHCO3, 5 KHCO3, 1.2 NaH2PO4, 5.6 glucose, 2.5 CaCl2, 1.2 MgCl2. In mucosal Ussing chamber solutions, all Cl salts were exchanged for gluconate salts.
Vitamin C activation of CFTR-mediated Cl secretion was studied in Calu-3 cells grown as epithelial monolayers (FIG. 21A). Exposure of the apical membrane to maximal concentrations of L-ascorbic acid stimulated transepithelial Cl currents (ISC) in a sustained fashion to 96±11 μA/cm^2 (n=22). Subsequent addition of forskolin further increased ISC to 141±33 μA/cm^2 (n=9, p=0.029). On average, Cl secretion was stimulated by ascorbate to 68% of the currents elicited by forskolin. The Cl channel blocker diphenylcarboxylate (DPC, 4 mM) was added as a measure for the transcellular Cl current decreasing ISC to 30±4 μA/cm^2. When Cl secretion was first stimulated with forskolin (to 106±23 μA/cm^2, n=4) ascorbate had no significant effect on Ise (at 100 μM: ΔICl=−1.5±3.5 μA/cm^2, n=4, not different from zero, one-sample t test). Half-maximal stimulatory constant averaged 36.5±2.9 μm as determined from transepithelial dose-response experiments.
Furthermore, the response to ascorbate in Na-containing medium was blunted in the presence of phloretin, a known inhibitor of the sodium-dependent vitamin C transporters SVCT1 and SVCT2 (Tsukaguchi, H., Tokui, T., Mackenzie, B., Berger, U. V., Chen, X. Z., Wang, Y., Brubaker, R. F. & Hediger, M. A. (1999) Nature 399, 70-75). […] Molecular expression of SVCT1 and SVCT2 transcripts in Calu-3 cells was verified using RT-PCR and DNA sequencing analysis. For comparison, human ciliated tracheal epithelial cultures (hTE) and a nasal cystic fibrosis airway cell line (CF15) were included. […] The recombinantly expressed SVCT2-EGFP fusion protein was targeted exclusively to the apical membrane pole of CF15 epithelia.

[3] = tested on: nasal potential difference (NPD); test: Nasal potential difference (NPD) measurements in healthy volunteers, Example 12; assay type: in vivo, human
Description: Nasal potential difference (NPD) measurements. Measurements of NPD were performed in healthy volunteers as described (Illek, B. & Fischer, H., Supra). The study protocol was approved by the Internal Review Board at Children's Hospital Oakland. Solutions and test drugs were perfused into one nostril at ˜5 ml/min at room temperature (23-25° C.). NaCl solution contained (in mM): 145 NaCl, 4 KCl, 1 CaCl2, 1 MgCl2, 10 Hepes, pH=7.4. In Cl free solutions all Cl salts were replaced by the respective gluconate salts. All solutions were sterile filtered before use. NPD was sensed with an Ag/AgCl/agar electrode placed in the perfusing tube with respect to an electrode placed on a slightly scratched skin part on the forearm (Alton, E. W. F. W., Currie, A. D., Logan-Sinclair, R., Warner, J. O., Hodson, M. E. & Geddes, D. M. (1990) Eur. Resp. J. 3, 922-926).
In vivo effects of ascorbic acid on Cl transport were evaluated using the nasal potential difference (NPD) assay for Cl channel function. The Cl-selective NPD was measured in amiloride-containing (100 μm) and chloride-free solutions. These experiments served as an important control to verify the significance of the transepithelial results obtained with ascorbic acid in Calu-3 cells. In close agreement with the transepithelial measurements, NPD was progressively hyperpolarized during the exposure of the nasal mucosa to L-ascorbic acid (by −6.7±0.4 mV, n=3) and the cAMP-stimulating agonist isoproterenol (by −5.5±0.5 mV, n=4) (FIG. 21C). A dose of 300 μm L-ascorbic acid hyperpolarized NPD to 72% of the NPD in presence of the cAMP agonist isoproterenol (10 μM).

average single channel open probability (Po) increased from zero to ([1]; 100 μM L-ascorbic acid, n=4): 0.21±0.08
CFTR Cl channel openings ([1]; applied to extracellular surface of the patched membrane): induced openings of CFTR Cl channels
slope conductance of ascorbate-stimulated chloride conductance ([1]; n=4): 8.9±0.2 pS
EC50 ([2]; Homo sapiens, Calu-3, transepithelial dose-response experiments, read-out: Half-maximal stimulatory constant): 36.5 ± 2.9 µM
Structure (SMILES): O=C1O[C@H](C(O)CO)C(O)=C1O (stereo partly drawn) [L-ascorbic acid, L-xyloascorbic acid]
concentrations causing maximal stimulation ([2]; FIG. 21B): > 300 µM
transepithelial Cl currents (ISC) stimulated to ([2]; apical exposure to maximal concentrations of L-ascorbic acid, n=22): 96±11 μA/cm^2
ΔICl after forskolin prestimulation ([2]; ascorbate at 100 μM after forskolin, n=4, not different from zero): −1.5±3.5 μA/cm^2
ascorbate-stimulated Cl secretion in absence of extracellular Na ([2]; no Na on the mucosal side): significantly reduced
Cl secretion stimulated, % of the currents elicited by forskolin ([2]; on average): 68%
NPD hyperpolarized to % of the NPD in presence of isoproterenol ([3]; 300 μm L-ascorbic acid vs isoproterenol 10 μM): 72%
NPD hyperpolarized by ([3]; L-ascorbic acid, amiloride (100 μm), chloride-free, n=3): −6.7±0.4 mV
